# In ChEMBL document CHEMBL3885861, “Open TG-GATES”:
# Species: Rattus norvegicus
# Assay: Open TG-GATES - Regimen: Daily Repeat
# Format: toxicity, organism-based, Sprague-Dawley
# Design: regimen Daily Repeat, gender Male, age 6 weeks
# Details: in vivo, po, 30 mg/kg, route gavage, dose level Low; for APTT / Bas / Eos / Fbg / Hb / Ht / Lym / MCH / MCHC / MCV / Mono / Neu / PT / Plat / RBC / Ret / WBC: tissue Blood; for KIDNEY_L / KIDNEY_R / KIDNEY_TOTAL: tissue Kidney; for LIVER: tissue Liver; for A/G / ALP / ALT / AST / BUN / CRE / Ca / Cl / DBIL / GLC / IP / K / LDH / Na / PL / RALB / TBIL / TC / TG / TP / gamma-GTP: tissue Plasma
smiles,measurement,setting,value
CC(=O)Nc1ccc2c(c1)Cc1ccccc1-2 [2-ACETYLAMINOFLUORENE],TERMINAL_BW,"72 h, time 3 day",222.5 g
same,APTT,"72 h, time 3 day",18.9 s
same,Bas,"72 h, time 3 day",0.6%
same,Eos,"72 h, time 3 day",1%
same,Fbg,"72 h, time 3 day",226.6 mg/dL
same,Hb,"72 h, time 3 day",14.8 g/dL
same,Ht,"72 h, time 3 day",42.2%
same,Lym,"72 h, time 3 day",81%
same,MCH,"72 h, time 3 day",22.3 pg
same,MCHC,"72 h, time 3 day",35%
same,MCV,"72 h, time 3 day",63.7 fL
same,Mono,"72 h, time 3 day",2.8%
same,Neu,"72 h, time 3 day",14%
same,PT,"72 h, time 3 day",12.3 s
same,Plat,"72 h, time 3 day",131.4 x10_4/uL
same,RBC,"72 h, time 3 day",663 x10_4/ul
same,Ret,"72 h, time 3 day",4.1%
same,WBC,"72 h, time 3 day",118 x10_2/uL
same,KIDNEY_L,"72 h, time 3 day",1 g
same,KIDNEY_R,"72 h, time 3 day",1 g
same,KIDNEY_TOTAL,"72 h, time 3 day",2 g
same,LIVER,"72 h, time 3 day",10.6 g
same,A/G,"72 h, time 3 day",1.5
same,ALP,"72 h, time 3 day",746.6 IU/L
same,ALT,"72 h, time 3 day",26.6 IU/L
same,AST,"72 h, time 3 day",69.2 IU/L
same,BUN,"72 h, time 3 day",12.4 mg/dL
same,CRE,"72 h, time 3 day",0.4 mg/dL
same,Ca,"72 h, time 3 day",10.3 mg/dL
same,Cl,"72 h, time 3 day",102.8 meq/L
same,DBIL,"72 h, time 3 day",0.086 mg/dL
same,GLC,"72 h, time 3 day",196.4 mg/dL
same,IP,"72 h, time 3 day",7.2 mg/dL
same,K,"72 h, time 3 day",4.1 meq/L
same,LDH,"72 h, time 3 day",241 IU/L
same,Na,"72 h, time 3 day",140.2 meq/L
same,PL,"72 h, time 3 day",100.8 mg/dL
same,RALB,"72 h, time 3 day",2.9 g/dL
same,TBIL,"72 h, time 3 day",0.1 mg/dL
same,TC,"72 h, time 3 day",50.2 mg/dL
same,TG,"72 h, time 3 day",77 mg/dL
same,TP,"72 h, time 3 day",5 g/dL
same,gamma-GTP,"72 h, time 3 day",1.2 IU/L
same,TERMINAL_BW,"[…], time 7 day",239.2 g
same,TERMINAL_BW,"[…], time 14 day",259.1 g
same,TERMINAL_BW,"[…], time 28 day",315.1 g
same,APTT,"[…], time 7 day",18.4 s
same,Bas,"[…], time 7 day",0.8%
same,Eos,"[…], time 7 day",1%
same,Fbg,"[…], time 7 day",204 mg/dL
same,Hb,"[…], time 7 day",15.4 g/dL
same,Ht,"[…], time 7 day",42.8%
same,Lym,"[…], time 7 day",82%
same,MCH,"[…], time 7 day",22.2 pg
same,MCHC,"[…], time 7 day",35.9%
same,MCV,"[…], time 7 day",61.9 fL
same,Mono,"[…], time 7 day",3%
same,Neu,"[…], time 7 day",12.6%
same,PT,"[…], time 7 day",13 s
same,Plat,"[…], time 7 day",159.6 x10_4/uL
same,RBC,"[…], time 7 day",692.2 x10_4/ul
same,Ret,"[…], time 7 day",1.8%
same,WBC,"[…], time 7 day",125.9 x10_2/uL
same,APTT,"[…], time 14 day",19.1 s
same,Bas,"[…], time 14 day",1%
same,Eos,"[…], time 14 day",0%
same,Fbg,"[…], time 14 day",102.2 mg/dL
same,Hb,"[…], time 14 day",14.7 g/dL
same,Ht,"[…], time 14 day",42%
same,Lym,"[…], time 14 day",79.8%
same,MCH,"[…], time 14 day",19.7 pg
same,MCHC,"[…], time 14 day",35%
same,MCV,"[…], time 14 day",56.3 fL
same,Mono,"[…], time 14 day",3.2%
same,Neu,"[…], time 14 day",15.6%
same,PT,"[…], time 14 day",14.9 s
same,Plat,"[…], time 14 day",144.2 x10_4/uL
same,RBC,"[…], time 14 day",747.2 x10_4/ul
same,Ret,"[…], time 14 day",1.8%
same,WBC,"[…], time 14 day",145.6 x10_2/uL
same,APTT,"[…], time 28 day",25.4 s
same,Bas,"[…], time 28 day",0.8%
same,Eos,"[…], time 28 day",0.6%
same,Fbg,"[…], time 28 day",78.2 mg/dL
same,Hb,"[…], time 28 day",14 g/dL
same,Ht,"[…], time 28 day",40.8%
same,Lym,"[…], time 28 day",67.6%
same,MCH,"[…], time 28 day",19 pg
same,MCHC,"[…], time 28 day",34.3%
same,MCV,"[…], time 28 day",55.4 fL
same,Mono,"[…], time 28 day",4.2%
same,Neu,"[…], time 28 day",26.4%
same,PT,"[…], time 28 day",19.2 s
same,Plat,"[…], time 28 day",102.7 x10_4/uL
same,RBC,"[…], time 28 day",735.6 x10_4/ul
same,Ret,"[…], time 28 day",5.3%
same,WBC,"[…], time 28 day",274.6 x10_2/uL
same,KIDNEY_L,"[…], time 7 day",1 g
same,KIDNEY_R,"[…], time 7 day",1 g
same,KIDNEY_TOTAL,"[…], time 7 day",2 g
same,KIDNEY_L,"[…], time 14 day",1.1 g
same,KIDNEY_R,"[…], time 14 day",1.1 g
same,KIDNEY_TOTAL,"[…], time 14 day",2.2 g
same,KIDNEY_L,"[…], time 28 day",1.3 g
same,KIDNEY_R,"[…], time 28 day",1.3 g
same,KIDNEY_TOTAL,"[…], time 28 day",2.6 g
same,LIVER,"[…], time 7 day",10.5 g
same,LIVER,"[…], time 14 day",9.9 g
same,LIVER,"[…], time 28 day",10.2 g
same,A/G,"[…], time 7 day",1.4
same,ALP,"[…], time 7 day",1055.8 IU/L
same,ALT,"[…], time 7 day",35 IU/L
same,AST,"[…], time 7 day",88 IU/L
same,BUN,"[…], time 7 day",13.8 mg/dL
same,CRE,"[…], time 7 day",0.5 mg/dL
same,Ca,"[…], time 7 day",10.2 mg/dL
same,Cl,"[…], time 7 day",105.2 meq/L
same,DBIL,"[…], time 7 day",0.096 mg/dL
same,GLC,"[…], time 7 day",182.2 mg/dL
same,IP,"[…], time 7 day",6.4 mg/dL
same,K,"[…], time 7 day",3.9 meq/L
same,LDH,"[…], time 7 day",271 IU/L
same,Na,"[…], time 7 day",140.2 meq/L
same,PL,"[…], time 7 day",110.6 mg/dL
same,RALB,"[…], time 7 day",2.6 g/dL
same,TBIL,"[…], time 7 day",0.2 mg/dL
same,TC,"[…], time 7 day",44.4 mg/dL
same,TG,"[…], time 7 day",115 mg/dL
same,TP,"[…], time 7 day",4.4 g/dL
same,gamma-GTP,"[…], time 7 day",1.6 IU/L
same,A/G,"[…], time 14 day",1.3
same,ALP,"[…], time 14 day",1040.6 IU/L
same,ALT,"[…], time 14 day",42 IU/L
same,AST,"[…], time 14 day",98.6 IU/L
same,BUN,"[…], time 14 day",13 mg/dL
same,CRE,"[…], time 14 day",0.5 mg/dL
same,Ca,"[…], time 14 day",9.4 mg/dL
same,Cl,"[…], time 14 day",104.6 meq/L
same,DBIL,"[…], time 14 day",0.5 mg/dL
same,GLC,"[…], time 14 day",171 mg/dL
same,IP,"[…], time 14 day",7.1 mg/dL
same,K,"[…], time 14 day",3.9 meq/L
same,LDH,"[…], time 14 day",211.2 IU/L
same,Na,"[…], time 14 day",141.2 meq/L
same,PL,"[…], time 14 day",102.4 mg/dL
same,RALB,"[…], time 14 day",2.2 g/dL
same,TBIL,"[…], time 14 day",0.7 mg/dL
same,TC,"[…], time 14 day",40.8 mg/dL
same,TG,"[…], time 14 day",43.8 mg/dL
same,TP,"[…], time 14 day",3.8 g/dL
same,gamma-GTP,"[…], time 14 day",1.4 IU/L
same,A/G,"[…], time 28 day",1
same,ALP,"[…], time 28 day",883 IU/L
same,ALT,"[…], time 28 day",57.8 IU/L
same,AST,"[…], time 28 day",155.4 IU/L
same,BUN,"[…], time 28 day",17.2 mg/dL
same,CRE,"[…], time 28 day",0.4 mg/dL
same,Ca,"[…], time 28 day",8.5 mg/dL
same,Cl,"[…], time 28 day",103.6 meq/L
same,DBIL,"[…], time 28 day",3 mg/dL
same,GLC,"[…], time 28 day",130.6 mg/dL
same,IP,"[…], time 28 day",6.8 mg/dL
same,K,"[…], time 28 day",4.2 meq/L
same,LDH,"[…], time 28 day",252.2 IU/L
same,Na,"[…], time 28 day",140.2 meq/L
same,PL,"[…], time 28 day",120.2 mg/dL
same,RALB,"[…], time 28 day",1.7 g/dL
same,TBIL,"[…], time 28 day",3.8 mg/dL
same,TC,"[…], time 28 day",60.2 mg/dL
same,TG,"[…], time 28 day",30.2 mg/dL
same,TP,"[…], time 28 day",3.4 g/dL
same,gamma-GTP,"[…], time 28 day",25.4 IU/L
